The record followed here is US10196386B2, “Compounds having muscarinic receptor antagonist and beta2 adrenergic receptor agonist activity” (priority 2016, dated 2019).

In one assay the target is T1, Human M3 receptor (Homo sapiens, UniProt P20309).
T1 construct: purchased Perkin Elmer
Nature of the assay: biochemical. The note with it: read-out: M3 Range. It counts as binding.

Another assay has as its target T2, Human β2 adrenoceptor (Homo sapiens, UniProt P07550).
T2 construct: purchased Perkin Elmer
As to the kind of experiment: β2 adrenoceptor radioligand binding assay. Put shortly:
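Human β2 receptor membranes incubated 1 h at room temperature with 0.3 nM [125I]cyanopindolol and compound in pH 7.4 HEPES buffer (0.5% DMSO); 2 μM s-propranolol defined non-specific binding. Bound label counted after filtration; IC50 from competition curves, converted to Ki via Cheng–Prusoff.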

T2 sequence (P07550 whole entry): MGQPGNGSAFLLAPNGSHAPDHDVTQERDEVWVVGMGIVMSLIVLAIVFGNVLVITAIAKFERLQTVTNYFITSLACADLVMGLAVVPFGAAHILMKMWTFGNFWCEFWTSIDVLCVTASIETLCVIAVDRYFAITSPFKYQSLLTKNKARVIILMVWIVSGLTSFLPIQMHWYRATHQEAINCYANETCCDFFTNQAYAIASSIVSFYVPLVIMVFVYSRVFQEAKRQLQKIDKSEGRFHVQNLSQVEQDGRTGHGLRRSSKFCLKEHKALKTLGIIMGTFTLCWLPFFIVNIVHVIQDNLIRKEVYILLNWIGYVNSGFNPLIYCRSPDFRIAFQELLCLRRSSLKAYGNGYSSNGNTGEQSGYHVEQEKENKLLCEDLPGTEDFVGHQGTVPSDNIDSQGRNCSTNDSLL
T1 sequence (P20309 whole entry): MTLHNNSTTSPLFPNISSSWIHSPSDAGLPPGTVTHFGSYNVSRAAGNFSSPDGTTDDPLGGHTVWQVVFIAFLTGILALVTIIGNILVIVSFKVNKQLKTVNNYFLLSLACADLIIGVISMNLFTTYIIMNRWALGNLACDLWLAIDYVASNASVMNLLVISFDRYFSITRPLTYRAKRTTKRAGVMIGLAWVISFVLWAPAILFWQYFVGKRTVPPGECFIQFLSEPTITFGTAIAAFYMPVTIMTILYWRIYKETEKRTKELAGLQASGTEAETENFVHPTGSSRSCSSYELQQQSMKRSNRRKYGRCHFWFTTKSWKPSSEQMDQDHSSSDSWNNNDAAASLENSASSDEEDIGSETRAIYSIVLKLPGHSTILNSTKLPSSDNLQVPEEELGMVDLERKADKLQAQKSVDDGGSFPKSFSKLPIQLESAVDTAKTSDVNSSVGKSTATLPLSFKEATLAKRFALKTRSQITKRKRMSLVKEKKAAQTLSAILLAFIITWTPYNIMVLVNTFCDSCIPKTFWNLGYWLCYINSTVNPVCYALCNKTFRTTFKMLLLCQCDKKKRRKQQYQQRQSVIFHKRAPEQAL

Consider `Cn1nc(C(=O)NCc2ccc(CNC[C@H](O)c3ccc(O)c4[nH]c(=O)ccc34)cc2)cc1-c1cccc([C@](O)(C(=O)OCC2CCN(Cc3ccccc3)CC2)c2ccccc2)c1` [Compound 14, (1-Benzylpiperidin-4-yl)methyl (S)-2-hydroxy-2-(3-(3-((4-((((R)-2-hydroxy-2-(8-hydroxy-2-oxo-1,2-dihydroquinolin-5-yl)ethyl)amino)methyl)-benzyl)carbamoyl)-1-methyl-1H-pyrazol-5-yl)phenyl)-2-phenylacetate], for which the IC50 on Human M3 receptor and at Human β2 adrenoceptor was 0.3 to 3 nM in each case.

As to `COc1cc(CNC[C@H](O)c2ccc(O)c3[nH]c(=O)ccc23)ccc1C(=O)N1CCC(c2cccc([C@](O)(C(=O)OCC3CCN(Cc4ccccc4)CC3)c3ccccc3)c2)CC1` [Compound 7B, (1-Benzylpiperidin-4-yl)methyl (S)-2-hydroxy-2-(3-(1-(4-((((R)-2-hydroxy-2-(8-hydroxy-2-oxo-1,2-dihydroquinolin-5-yl)ethyl)amino)methyl)-2-methoxybenzoyl)piperidin-4-yl)phenyl)-2-phenylacetate], the IC50 on Human M3 receptor is 0.3 to 3 nM; at Human β2 adrenoceptor it was above 3 nM.

As for `O=C(NCc1cc(-c2ccc([C@](O)(C(=O)OCC3CCN(Cc4ccccc4)CC3)c3ccccc3)cc2)cs1)c1ccc(CNC[C@H](O)c2ccc(O)c3[nH]c(=O)ccc23)cc1` [Compound 15B, (1-benzylpiperidin-4-yl)methyl (S)-2-hydroxy-2-(4-(5-((4-((((R)-2-hydroxy-2-(8-hydroxy-2-oxo-1,2-dihydroquinolin-5-yl)ethyl)amino)methyl)-benzamido)methyl)thiophen-3-yl)phenyl)-2-phenylacetate], the IC50 at Human M3 receptor was above 3 nM; at Human β2 adrenoceptor, 0.3 to 3 nM.

Turning to `COc1cc(CNC[C@H](O)c2ccc(O)c3[nH]c(=O)ccc23)ccc1C(=O)N1CC=C(c2cccc([C@](O)(C(=O)OCC3CCN(Cc4ccccc4)CC3)c3ccccc3)c2)CC1` [Compound 3E, (1-Benzylpiperidin-4-yl)methyl (S)-2-hydroxy-2-(3-(1-(4-((((R)-2-hydroxy-2-(8-hydroxy-2-oxo-1,2-dihydroquinolin-5-yl)ethyl)amino)methyl)-2-methoxybenzoyl)-1,2,3,6-tetrahydropyridin-4-yl)phenyl)-2-phenylacetate], the IC50 at Human M3 receptor and at Human β2 adrenoceptor was below 0.3 nM each time.

As to `O=C(NCc1ccc(-c2cccc([C@](O)(C(=O)OCC3CCN(Cc4ccccc4)CC3)c3ccccc3)c2)s1)c1ccc(CNC[C@H](O)c2ccc(O)c3[nH]c(=O)ccc23)c(F)c1` [Compound 1J, (1-Benzylpiperidin-4-yl)methyl (S)-2-(3-(5-((3-fluoro-4-((((R)-2-hydroxy-2-(8-hydroxy-2-oxo-1,2-dihydroquinolin-5-yl)ethyl)amino)methyl)-benzamido)methyl)thiophen-2-yl)phenyl)-2-hydroxy-2-phenylacetate], the figures for the IC50 at Human M3 receptor and at Human β2 adrenoceptor were 0.3 to 3 nM and below 0.3 nM, respectively.

Take `COc1cc(C(=O)NCc2ccc(-c3cccc([C@](O)(C(=O)OCC4CCN(Cc5ccccc5)CC4)c4ccccc4)c3)s2)ccc1CNC[C@H](O)c1ccc(O)c2[nH]c(=O)ccc12` [Compound 1B, (1-Benzylpiperidin-4-yl)methyl (S)-2-hydroxy-2-(3-(5-((4-((((R)-2-hydroxy-2-(8-hydroxy-2-oxo-1,2-dihydroquinolin-5-yl)ethyl)amino)methyl)-3-methoxybenzamido)methyl)thiophen-2-yl)phenyl)-2-phenylacetate]: the IC50 was 0.3 to 3 nM on Human M3 receptor and below 0.3 nM at Human β2 adrenoceptor.

`COc1cc(C(=O)NCc2cc(-c3ccc([C@](O)(C(=O)OCC4CCN(Cc5ccccc5)CC4)c4ccccc4)cc3)cs2)ccc1CNC[C@H](O)c1ccc(O)c2[nH]c(=O)ccc12` [Compound 15F, (1-benzylpiperidin-4-yl)methyl (S)-2-hydroxy-2-(4-(5-((4-((((R)-2-hydroxy-2-(8-hydroxy-2-oxo-1,2-dihydroquinolin-5-yl)ethyl)amino)methyl)-3-methoxybenzamido)methyl)thiophen-3-yl)phenyl)-2-phenylacetate]: the values for the IC50 at Human M3 receptor and at Human β2 adrenoceptor were 0.3 to 3 nM and below 0.3 nM, respectively.

Turning to `COc1c(CNC[C@H](O)c2ccc(O)c3[nH]c(=O)ccc23)ccc(C(=O)NCc2ccc(-c3cccc([C@](O)(C(=O)OCC4CCN(Cc5ccccc5)CC4)c4ccccc4)c3)s2)c1F` [Compound 1K, (1-Benzylpiperidin-4-yl)methyl (S)-2-(3-(5-((2-fluoro-4-((((R)-2-hydroxy-2-(8-hydroxy-2-oxo-1,2-dihydroquinolin-5-yl)ethyl)amino)methyl)-3-methoxybenzamido)methyl)thiophen-2-yl)phenyl)-2-hydroxy-2-phenylacetate], the values for the IC50 at Human M3 receptor and on Human β2 adrenoceptor were 0.3 to 3 nM and below 0.3 nM, respectively.

Take `Cc1cc(C(=O)NCc2ccc(-c3cccc([C@](O)(C(=O)OCC4CCN(Cc5ccccc5)CC4)c4ccccc4)c3)s2)c(F)cc1CNC[C@H](O)c1ccc(O)c2[nH]c(=O)ccc12` [Compound 1O, (1-Benzylpiperidin-4-yl)methyl (S)-2-(3-(5-((2-fluoro-4-((((R)-2-hydroxy-2-(8-hydroxy-2-oxo-1,2-dihydroquinolin-5-yl)ethyl)amino)methyl)-5-methylbenzamido)methyl)thiophen-2-yl)phenyl)-2-hydroxy-2-phenylacetate]: the values for the IC50 on Human M3 receptor and at Human β2 adrenoceptor were above 3 nM and below 0.3 nM, respectively.

On to `O=C(NCc1ccc(CCNC[C@H](O)c2ccc(O)c3[nH]c(=O)ccc23)cc1)c1ccc(-c2ccc([C@](O)(C(=O)OCC3CCN(Cc4ccccc4)CC3)c3ccccc3)cc2)s1` [Compound 16, (1-benzylpiperidin-4-yl)methyl (S)-2-hydroxy-2-(4-(5-((4-(2-(((R)-2-hydroxy-2-(8-hydroxy-2-oxo-1,2-dihydroquinolin-5-yl)ethyl)amino)ethyl)benzyl)-carbamoyl)thiophen-2-yl)phenyl)-2-phenylacetate×2 HCOOH], for which the figures for the IC50 on Human M3 receptor and at Human β2 adrenoceptor were above 3 nM and 0.3 to 3 nM, respectively.

Regarding `O=C(NCc1ccc(-c2cccc([C@](O)(C(=O)OCC3CCN(Cc4ccccc4)CC3)c3ccccc3)c2)o1)c1ccc(CNC[C@H](O)c2ccc(O)c3[nH]c(=O)ccc23)cc1` [Compound 3A, (1-Benzylpiperidin-4-yl)methyl (S)-2-hydroxy-2-(3-(5-((4-((((R)-2-hydroxy-2-(8-hydroxy-2-oxo-1,2-dihydroquinolin-5-yl)ethyl)amino)methyl)-benzamido)methyl)furan-2-yl)phenyl)-2-phenylacetate], the IC50 on Human M3 receptor and at Human β2 adrenoceptor was 0.3 to 3 nM throughout.

Consider `COc1cc(C(=O)NCc2nccnc2-c2cccc([C@](O)(C(=O)OCC3CCN(Cc4ccccc4)CC3)c3ccccc3)c2)ccc1CNC[C@H](O)c1ccc(O)c2[nH]c(=O)ccc12` [Compound 5E, (1-Benzylpiperidin-4-yl)methyl (S)-2-hydroxy-2-(3-(3-((4-((((R)-2-hydroxy-2-(8-hydroxy-2-oxo-1,2-dihydroquinolin-5-yl)ethyl)amino)methyl)-3-methoxybenzamido)methyl)pyrazin-2-yl)phenyl)-2-phenylacetate], for which the IC50 at Human M3 receptor is 0.3 to 3 nM; at Human β2 adrenoceptor, below 0.3 nM.

For `O=C(NCc1cnc(-c2cccc([C@](O)(C(=O)OCC3CCN(Cc4ccccc4)CC3)c3ccccc3)c2)s1)c1ccc(CNC[C@H](O)c2ccc(O)c3[nH]c(=O)ccc23)cc1` [Compound 5B, (1-Benzylpiperidin-4-yl)methyl (S)-2-hydroxy-2-(3-(5-((4-((((R)-2-hydroxy-2-(8-hydroxy-2-oxo-1,2-dihydroquinolin-5-yl)ethyl)amino)methyl)-benzamido)methyl)thiazol-2-yl)phenyl)-2-phenylacetate], the figures for the IC50 on Human M3 receptor and at Human β2 adrenoceptor were 0.3 to 3 nM and below 0.3 nM, respectively.

As to `O=C(c1cc(-c2cccc([C@](O)(C(=O)OCC3CCN(Cc4ccccc4)CC3)c3ccccc3)c2)ccn1)N1CCC(CNC[C@H](O)c2ccc(O)c3[nH]c(=O)ccc23)CC1` [Compound 6B, (1-Benzylpiperidin-4-yl)methyl (S)-2-hydroxy-2-(3-(2-(4-((((R)-2-hydroxy-2-(8-hydroxy-2-oxo-1,2-dihydroquinolin-5-yl)ethyl)amino)methyl)piperidine-1-carbonyl)pyridin-4-yl)phenyl)-2-phenylacetate], the IC50 on Human M3 receptor was 0.3 to 3 nM; at Human β2 adrenoceptor it was below 0.3 nM.

As for `COc1cc(C(=O)NCC(=O)N2CC=C(c3cccc([C@](O)(C(=O)OCC4CCN(Cc5ccccc5)CC4)c4ccccc4)c3)CC2)ccc1CNC[C@H](O)c1ccc(O)c2[nH]c(=O)ccc12` [Compound 8E, (1-Benzylpiperidin-4-yl)methyl (S)-2-hydroxy-2-(3-(1-((4-((((R)-2-hydroxy-2-(8-hydroxy-2-oxo-1,2-dihydroquinolin-5-yl)ethyl)amino)methyl)-3-methoxybenzoyl)glycyl)-1,2,3,6-tetrahydropyridin-4-yl)phenyl)-2-phenylacetate], the figures for the IC50 on Human M3 receptor and at Human β2 adrenoceptor were 0.3 to 3 nM and below 0.3 nM, respectively.

As for `CCOc1cc(C(=O)NCc2ccc(-c3cccc([C@](O)(C(=O)OCC4CCN(Cc5ccccc5)CC4)c4ccccc4)c3)s2)ccc1CNC[C@H](O)c1ccc(O)c2[nH]c(=O)ccc12` [Compound 1I, (1-Benzylpiperidin-4-yl)methyl (S)-2-(3-(5-((3-ethoxy-4-((((R)-2-hydroxy-2-(8-hydroxy-2-oxo-1,2-dihydroquinolin-5-yl)ethyl)amino)methyl)-benzamido)methyl)thiophen-2-yl)phenyl)-2-hydroxy-2-phenylacetate], the IC50 at Human M3 receptor and on Human β2 adrenoceptor was 0.3 to 3 nM in each case.

`O=C(NCCc1ccc(-c2cccc([C@](O)(C(=O)OCC3CCN(Cc4ccccc4)CC3)c3ccccc3)c2)s1)c1ccc(CNC[C@H](O)c2ccc(O)c3[nH]c(=O)ccc23)cc1` [Compound 5D, (1-Benzylpiperidin-4-yl)methyl (S)-2-hydroxy-2-(3-(5-(2-(4-((((R)-2-hydroxy-2-(8-hydroxy-2-oxo-1,2-dihydroquinolin-5-yl)ethyl)amino)methyl)-benzamido)ethyl)thiophen-2-yl)phenyl)-2-phenylacetate]: the IC50 was 0.3 to 3 nM at Human M3 receptor and below 0.3 nM at Human β2 adrenoceptor.
